Data taken from ChEMBL document CHEMBL4732258, “Pyxinol bearing amino acid residues: Easily achievable and promising modulators of P-glycoprotein-mediated multidrug resistance” (Eur J Med Chem, 2021).
Activity calls are given as the source filed them. The rule behind the calls is not given here.

Tests used:
[1] = Cytotoxicity against human KBV cells assessed as cell viability at 10 uM incubated for 72 hrs by MTT assay; assay type: cell-based; conditions: read-out: Activity
[2] = system: KBV; experiment: Reversal of Pgp-mediated paclitaxel resistance in human KBV cells assessed as cell viability at 10 uM in presence of paclitaxel incubated for 72 hrs by MTT assay; assay type: cell-based
[3] = system: KBV; experiment: Reversal of Pgp-mediated paclitaxel resistance in human KBV cells assessed as cell viability at 5 uM in presence of paclitaxel incubated for 72 hrs by MTT assay; assay type: cell-based
[4] = system: KBV; experiment: Reversal of Pgp-mediated multidrug resistance in human KBV cells assessed as fold change in paclitaxel IC50 at 5 uM after 72 hrs in presence of paclitaxel by MTT assay relative to control; assay type: cell-based
[5] = system: KBV; experiment: Reversal of Pgp-mediated multidrug resistance in human KBV cells assessed as fold change in paclitaxel IC50 at 10 uM after 72 hrs in presence of paclitaxel by MTT assay relative to control; assay type: cell-based
[6] = system: KBV; experiment: Reversal of Pgp-mediated multidrug resistance in human KBV cells assessed as fold change in vincristine IC50 at 5 uM after 72 hrs in presence of vincristine by MTT assay relative to control; assay type: cell-based
[7] = system: KBV; experiment: Reversal of Pgp-mediated multidrug resistance in human KBV cells assessed as fold change in vincristine IC50 at 10 uM after 72 hrs in presence of vincristine by MTT assay relative to control; assay type: cell-based
[8] = system: KBV; experiment: Reversal of P-gp mediated drug efflux in human KBV cells assessed as increase in intracellular Rhodamine123 accumulation preincubated for 2 hrs followed by Rh123 addition measured after 0.5 hr by flow cytometry analysis; assay type: cell-based; conditions: filed as modulator, dose 2-10 µM, time 2.5 hrs
[9] = target: T1, Broad substrate specificity ATP-binding cassette transporter ABCG2 (Homo sapiens, UniProt Q9UNQ0); experiment: Reversal of BCRP-mediated multidrug resistance in human KBV cells assessed as fold change in mitoxantrone IC50 at 5 uM after 72 hrs in presence of mitoxantrone by MTT assay; assay type: cell-based
T1 sequence (Q9UNQ0 whole entry): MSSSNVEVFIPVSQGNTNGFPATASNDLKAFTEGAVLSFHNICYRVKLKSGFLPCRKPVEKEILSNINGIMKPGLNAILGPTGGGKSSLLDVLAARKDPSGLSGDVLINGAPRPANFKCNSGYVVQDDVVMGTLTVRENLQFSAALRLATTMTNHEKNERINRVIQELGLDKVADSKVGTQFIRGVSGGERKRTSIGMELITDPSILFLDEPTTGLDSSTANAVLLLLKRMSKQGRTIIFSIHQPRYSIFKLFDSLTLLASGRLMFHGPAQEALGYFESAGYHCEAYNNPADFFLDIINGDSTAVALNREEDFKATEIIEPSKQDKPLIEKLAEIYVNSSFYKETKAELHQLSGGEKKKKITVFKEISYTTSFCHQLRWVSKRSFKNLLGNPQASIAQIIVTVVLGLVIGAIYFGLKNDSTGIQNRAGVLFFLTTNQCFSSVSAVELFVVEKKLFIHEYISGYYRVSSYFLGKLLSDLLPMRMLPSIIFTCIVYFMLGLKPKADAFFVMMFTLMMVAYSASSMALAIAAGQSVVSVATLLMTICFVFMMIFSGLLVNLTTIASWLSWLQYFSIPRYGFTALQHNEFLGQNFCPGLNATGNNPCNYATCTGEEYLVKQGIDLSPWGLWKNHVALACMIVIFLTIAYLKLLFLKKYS

[10] = target: T1, Broad substrate specificity ATP-binding cassette transporter ABCG2; experiment: Reversal of BCRP-mediated multidrug resistance in human KBV cells assessed as fold change in mitoxantrone IC50 at 10 uM after 72 hrs in presence of mitoxantrone by MTT assay; assay type: cell-based
[11] = organism: Homo sapiens; experiment: Modulation of Pgp-ATPase activity (unknown origin) assessed as fold increase in ATP consumption at 0.5 mM preincubated for 5 mins followed by Mg-ATP addition and measured after 45 mins by microplate reader analysis; conditions: filed as modulator, time 50.0 min
[12] = system: KBV; experiment: Effect on Pgp protein expression in human KBV cells at 5 to 10 uM after 24 hrs by Western blot analysis; assay type: functional, cell-based; conditions: dose 5-10 µM
[13] = Induction of cell cycle arrest in human KBV cells assessed as accumulation at sub-G1 phase at 10 uM after 24 hrs by PI/RNaseA staining based flow cytometric analysis (reference value: 4.26 +/- 0.35%); assay type: functional
[14] = Induction of cell cycle arrest in human KBV cells assessed as accumulation at G1/G0 phase at 10 uM after 24 hrs by PI/RNaseA staining based flow cytometric analysis (reference value: 49.09 +/- 0.35%); assay type: functional
[15] = Induction of cell cycle arrest in human KBV cells assessed as accumulation at S phase at 10 uM after 24 hrs by PI/RNaseA staining based flow cytometric analysis (reference value: 11.32 +/- 0.04%); assay type: functional
[16] = Induction of cell cycle arrest in human KBV cells assessed as accumulation at G2/M phase at 10 uM after 24 hrs by PI/RNaseA staining based flow cytometric analysis (reference value: 33.81 +/- 0.57%); assay type: functional
[17] = Induction of cell cycle arrest in human KBV cells assessed as accumulation at sub-G1 phase at 5 uM after 24 hrs in presence of 0.1 uM paclitaxel by PI/RNaseA staining based flow cytometric analysis (reference value: 5.83 +/- 0.31%); assay type: functional
[18] = Induction of cell cycle arrest in human KBV cells assessed as accumulation at G1/G0 phase at 5 uM after 24 hrs in presence of 0.1 uM paclitaxel by PI/RNaseA staining based flow cytometric analysis (reference value: 50.74 +/- 0.07%); assay type: functional
[19] = Induction of cell cycle arrest in human KBV cells assessed as accumulation at S phase at 5 uM after 24 hrs in presence of 0.1 uM paclitaxel by PI/RNaseA staining based flow cytometric analysis (reference value: 13.06 +/- 0.39%); assay type: functional
[20] = Induction of cell cycle arrest in human KBV cells assessed as accumulation at G2/M phase at 5 uM after 24 hrs in presence of 0.1 uM paclitaxel by PI/RNaseA staining based flow cytometric analysis (reference value: 28.03 +/- 0.95%); assay type: functional
[21] = Induction of cell cycle arrest in human KBV cells assessed as accumulation at sub-G1 phase at 10 uM after 24 hrs in presence of 0.1 uM paclitaxel by PI/RNaseA staining based flow cytometric analysis (reference value: 5.83 +/- 0.31%); assay type: functional
[22] = Induction of cell cycle arrest in human KBV cells assessed as accumulation at G1/G0 phase at 10 uM after 24 hrs in presence of 0.1 uM paclitaxel by PI/RNaseA staining based flow cytometric analysis (reference value: 50.74 +/- 0.07%); assay type: functional
[23] = Induction of cell cycle arrest in human KBV cells assessed as accumulation at S phase at 10 uM after 24 hrs in presence of 0.1 uM paclitaxel by PI/RNaseA staining based flow cytometric analysis (reference value: 13.06 +/- 0.39%); assay type: functional
[24] = Induction of cell cycle arrest in human KBV cells assessed as accumulation at G2/M phase at 10 uM after 24 hrs in presence of 0.1 uM paclitaxel by PI/RNaseA staining based flow cytometric analysis (reference value: 28.03 +/- 0.95%); assay type: functional
[25] = Antitumor activity against human KBV cells xenografted model assessed as reduction in tumor weight at 10 mg/kg in presence of 30 mg/kg paclitaxel; assay type: functional

Structure (SMILES)	viability at 72 h, 10 µM [1] [%]	Activity ([2]; filed as modulator) [%]	Activity ([3]; filed as modulator) [%]	fold change (FC) [4]	fold change (FC) [5]	Activity [3] [%]	further results
CSCC[C@H](NC(=O)OC(C)(C)C)C(=O)O[C@H]1CC[C@]2(C)[C@H]3C[C@@H](O)[C@@H]4[C@@H]([C@]5(C)CC[C@H](C(C)(C)O)O5)CC[C@@]4(C)[C@]3(C)CC[C@H]2C1(C)C	120	21	26	25	59		fold change (FC) [6]: 3; fold change (FC) [7]: 8; Activity [8]: Dose-dependent effect; fold change (FC) [9]: 1.4; fold change (FC) [10]: 1.6; fold change (FC) [11]: 6; Activity [12]: inactive; Activity [13]: 3.31%; Activity [14]: 42.81%; Activity [15]: 13.67%; Activity [16]: 38.79%; Activity [17]: 19.8%; Activity [18]: 14%; Activity [19]: 12.94%; Activity [20]: 51.66%; Activity [21]: 22.66%; Activity [22]: 13.75%; Activity [23]: 11.1%; Activity [24]: 51.06%
CSCC[C@H](NC(=O)OC(C)(C)C)C(=O)O[C@H]1CC[C@]2(C)[C@H]3C[C@@H](O)[C@@H]4[C@@H]([C@]5(C)CC[C@@H](C(C)(C)O)O5)CC[C@@]4(C)[C@]3(C)CC[C@H]2C1(C)C	88	16	19	18	51		fold change (FC) [6]: 5; fold change (FC) [7]: 14; fold change (FC) [9]: 0.8; fold change (FC) [10]: 1.2
CSCC[C@H](N)C(=O)O[C@H]1CC[C@]2(C)[C@H]3C[C@@H](O)[C@@H]4[C@@H]([C@]5(C)CC[C@H](C(C)(C)O)O5)CC[C@@]4(C)[C@]3(C)CC[C@H]2C1(C)C	90	23	26	17	34		
COc1ccc(CCN(C)CCCC(C#N)(c2ccc(OC)c(OC)c2)C(C)C)cc1OC (stereo not drawn)		28			40		fold change (FC) [7]: 16; fold change (FC) [10]: 1; fold change (FC) [11]: 5.6; Activity [13]: 4.69%; Activity [14]: 51.35%; Activity [15]: 11.44%; Activity [16]: 31.36%; Activity [21]: 18.47%; Activity [22]: 11.1%; Activity [23]: 11.57%; Activity [24]: 57.42%
CC(C)[C@H](N)C(=O)O[C@H]1CC[C@]2(C)[C@H]3C[C@@H](O)[C@@H]4[C@@H]([C@]5(C)CC[C@@H](C(C)(C)O)O5)CC[C@@]4(C)[C@]3(C)CC[C@H]2C1(C)C	96	25	49				
CC(C)(O)[C@@H]1CC[C@@](C)([C@H]2CC[C@]3(C)[C@@H]2[C@H](O)C[C@@H]2[C@@]4(C)CC[C@H](OC(=O)[C@@H](N)CCC(=O)O)C(C)(C)[C@@H]4CC[C@]23C)O1	112					95	Activity [2]: 92%
CC(C)[C@H](NC(=O)OC(C)(C)C)C(=O)O[C@H]1CC[C@]2(C)[C@H]3C[C@@H](O)[C@@H]4[C@@H]([C@]5(C)CC[C@@H](C(C)(C)O)O5)CC[C@@]4(C)[C@]3(C)CC[C@H]2C1(C)C	128					106	Activity [2]: 110%
CC(C)(O)[C@H]1CC[C@@](C)([C@H]2CC[C@]3(C)[C@@H]2[C@H](O)C[C@@H]2[C@@]4(C)CC[C@H](OC(=O)[C@@H](N)Cc5ccc(O)cc5)C(C)(C)[C@@H]4CC[C@]23C)O1	87	27	28				
CC(C)(O)[C@H]1CC[C@@](C)([C@H]2CC[C@]3(C)[C@@H]2[C@H](O)C[C@@H]2[C@@]4(C)CC[C@H](OC(=O)[C@@H](N)Cc5c[nH]c6ccccc56)C(C)(C)[C@@H]4CC[C@]23C)O1	81	30	32				
CSCC[C@H](N)C(=O)O[C@H]1CC[C@]2(C)[C@H]3C[C@@H](O)[C@@H]4[C@@H]([C@]5(C)CC[C@@H](C(C)(C)O)O5)CC[C@@]4(C)[C@]3(C)CC[C@H]2C1(C)C	100	31		0.4	6	56	
C[C@@H](OCc1ccccc1)[C@H](NC(=O)OC(C)(C)C)C(=O)O[C@H]1CC[C@]2(C)[C@H]3C[C@@H](O)[C@@H]4[C@@H]([C@]5(C)CC[C@H](C(C)(C)O)O5)CC[C@@]4(C)[C@]3(C)CC[C@H]2C1(C)C	138					138	Activity [2]: 144%
CC(C)(C)OC(=O)NCCCCCC(=O)N[C@H]1CC[C@]2(C)[C@H]3C[C@@H](O)[C@@H]4[C@@H]([C@]5(C)CC[C@H](C(C)(C)O)O5)CC[C@@]4(C)[C@]3(C)CC[C@H]2C1(C)C							inhibition in vivo at 10 mg/kg [25]: 53.7%
CC(C)(C)OC(=O)NCCCC[C@H](NC(=O)OC(C)(C)C)C(=O)O[C@H]1CC[C@]2(C)[C@H]3C[C@@H](O)[C@@H]4[C@@H]([C@]5(C)CC[C@@H](C(C)(C)O)O5)CC[C@@]4(C)[C@]3(C)CC[C@H]2C1(C)C	123	21	28				
